Where two headings read alike, the source gives them in different places.
What was measured:
[1] = test system: HIV-1 virus (NL4.3 strain); experiment: MT-2 based antiviral assay (S8737E); format: cell-based
Source text: MT-2 Based Antiviral Assay (S8737E)
This assay is designed to determine the effects of small molecules on the replication of HIV-1 in the lymphobastoid cell line, MT2, and is able to detect the antiviral effect of compounds acting at any stage of the HIV-1 replication cycle. The assay, along with its associated cytotoxicity assay, was described in detail in 2005 in a paper by Cao et al (Antimicrobial Agents and Chemotherapy 2005; 49(9), p 3833-3841).
MT2 cells are infected with the HIV-1 virus (NL4.3 strain; Adachi et al., Journal of Virology 1986) and transferred to assay plates containing serial dilutions of compounds to be tested. The assay plates are incubated for 3 days (MT2) to allow for several rounds of viral replication/infection to take place. At the end of this time, supernatant is transferred into new plates containing JC53BL cells.
JC53BL cells express CXCR4, CCR5 and CD4 receptors, and HIV-1-LTR-β-Gal. Under normal culture conditions undetectable levels of β-Galactosidase are expressed, but in the presence of HIV-1, the viral Tat protein is able to activate the HIV-1-LTR in the JC53BL cells resulting in the increased expression of the β-Gal enzyme. The expression can be measured using the ‘FluorAce β-Galactosidase reporter’ assay. The levels of β-Gal are directly proportional to the levels of Tat (up to a threshold) allowing virus quantification. Compounds that inhibit virus replication will give rise to a reduced signal and a dose-response curve for each compound can be generated. This is then used to determine the IC50 for each compound, a measure of the compound's potency.

[2] = biological target: T1, LEDGF-Integrase interaction (Human immunodeficiency virus type 1 group M subtype B, UniProt P12497); experiment: HTRF Interaction assay (S9118); design: species or system HIV; conditions: His6-tagged integrase and MBP-LEDGF integrase binding domain
T1 construct: His6-tagged integrase (78 nM final concentration); purchased Prof; Zeger Debyser, Katholieke Universiteit Leuven (supplied by an academic laboratory, not a commercial vendor)
Source text: • Adachi, A., Gendelman, H., Koenig, S., Folks, T., Wiley, R., Rabson, A. and Martin, M (1986) Production of acquired immunodeficency syndrome-associated retrovirus in human and nonhuman cells transfected with an infectious molecular clone, J. Virol., 59, 284-291. • Cao J, Isaacson J, Patick A K, Blair W S. (2005) High-throughput human immunodeficiency virus type 1 (HIV-1) full replication assay that includes HIV-1 Vif as an antiviral target Antimicrobial Agents and Chemotherapy; 49(9), p 3833-3841. Assay to Measure the LEDGF-Integrase Integration Inhibitory Activity of Compounds of the Invention HTRF Interaction Assay (S9118)
An Homogeneous Time Resolved Fluorescence (HTRF) assay is performed in a manner similar to previous reports on HTRF protein assays as reviewed by Mathis (Clin. Chem., 2005). The assay procedure is performed as follows: reactions are performed in 20 μl final volume in 384-well black low volume microtiter plates (Greiner). The final reaction buffer contains 29 mM phosphase buffer (pH 7), 10 mM HEPES buffet (pH 7.4), 68.5 mM NaCl, 1.4 mM KCl, 400 mM KF 0.05% (w/v) pluronic acid (P104, Sigma Aldrich) and 1% (v/v) DMSO. His6-tagged integrase (78 nM final concentration) is incubated with […] fused to the Δ325 carboxy terminal integrase binding domain of LEDGF in the presence of compound for 2 hours at room temperature. Both these protein regents are supplied by Prof. Zeger Debyser of Katholleke Universiteit Leuven, Leuven, Belgium. The compounds are added at varying concentrations spanning a wide range from 0.1 up to 100 μM. Afterwards 8.3 nM of europium cryptate conjugated anti-MBP monoclonal antibody and 17 nM anti-His antibody conjugated with the acceptor fluorophore d2. Following a 2 hour room temperature incubation the plates are read on an EnVision™ microplate reader (Perkin Elmer) using an excitation wavelength of 320 nm. The ratio of fluorescence emitted at […] is used to assess the degree to which the protein-protein interaction had been inhibited.

[3] = Human immunodeficiency virus 1, 72 h, read-out: Antiviral Activity (S8737E, μM), HIV-1 NL4.3 replication in MT2 cells, 3 days, β-Gal readout in JC53BL cells

SMILES | IC50 [1, 3] | IC50 [2] | IC50 ([2]; table values) | IC50 ([1]; read-out: Antiviral Activity (S8737E), HIV-1 NL4.3 replication in MT2 cells, 3 days, β-Gal readout in JC53BL cells)
Cc1ccc(-c2c([C@@H](OC(C)(C)C)C(=O)O)c(C)nc3sc4c(c23)CCCC4)c(O)c1 (single isomer, unassigned) [48, first eluting enantiomer] | 0.089 µM | 4.12 µM | – | –
Cc1ccc(-c2c(C(OC(C)(C)C)C(=O)O)c(C)nc3sc4c(c23)CCCC4)c(O)c1 (single isomer, unassigned) [48, second eluting enantiomer] | 0.013 µM | 0.576 µM | – | –
Cc1nc2sc3c(c2c(-c2ccc(Cl)cc2O)c1[C@H](OC(C)(C)C)C(=O)O)CCCC3 (single isomer, unassigned) [Atropisomer 46A] | 0.014 µM | 0.558 µM | – | –
Cc1nc2sc3c(c2c(-c2cncnc2)c1C(OC(C)(C)C)C(=O)O)CCCC3 (stereo not drawn) [Example 1, Tert-butoxy(2-methyl-4-pyrimidin-5-yl-5,6,7,8-tetrahydro[1]benzothieno[2,3-b]pyridin-3-yl)acetic acid] | > 20 µM | – | – | –
Cc1nc2sc3c(c2c(-c2ccc4scnc4c2)c1C(OC(C)(C)C)C(=O)O)CCCC3 (stereo not drawn) [Example 4] | 0.282 µM | – | 3.48 µM | –
CCc1ccc(-c2c(C(OC(C)(C)C)C(=O)O)c(C)nc3sc4c(c23)CCCC4)c(O)c1 (stereo not drawn) [Example 5] | 0.155 µM | – | 2.7 µM | –
Cc1nc2sc3c(c2c(-c2ccc4cn[nH]c4c2)c1C(OC(C)(C)C)C(=O)O)CCCC3 (stereo not drawn) [Example 6] | 0.305 µM | – | 2.63 µM | –
COc1ccc(-c2c(C(OC(C)(C)C)C(=O)O)c(C)nc3sc4c(c23)CCCC4)cn1 (stereo not drawn) [Example 7] | 0.436 µM | – | 9.25 µM | –
CCn1cc(-c2c(C(OC(C)(C)C)C(=O)O)c(C)nc3sc4c(c23)CCCC4)cn1 (stereo not drawn) [Example 8] | 0.624 µM | – | 23.8 µM | –
Cc1nc2sc3c(c2c(-c2ccc(C(F)(F)F)nc2)c1C(OC(C)(C)C)C(=O)O)CCCC3 (stereo not drawn) [Example 9] | 0.683 µM | – | 11.7 µM | –
Cc1nc2sc3c(c2c(-c2ccc4cnn(C)c4c2)c1C(OC(C)(C)C)C(=O)O)CCCC3 (stereo not drawn) [Example 10] | 0.795 µM | – | 7.87 µM | –
Cc1nc2sc3c(c2c(-c2ccc4cnn(C)c4c2)c1C(OC(C)(C)C)C(=O)O)CCCC3 (stereo not drawn) [Example 11] | – | – | 12.2 µM | 0.814 µM
Cc1nc2sc3c(c2c(-c2ccc4c(cnn4C)c2)c1C(OC(C)(C)C)C(=O)O)CCCC3 (stereo not drawn) [Example 12] | 0.941 µM | – | 5.13 µM | –
Cc1nc2sc3c(c2c(-c2ccccc2CO)c1C(OC(C)(C)C)C(=O)O)CCCC3 (stereo not drawn) [Example 13] | 0.957 µM | – | 56.3 µM | –
COc1cc(-c2c(C(OC(C)(C)C)C(=O)O)c(C)nc3sc4c(c23)CCCC4)ccn1 (stereo not drawn) [Example 14] | 1.24 µM | – | 28.4 µM | –
Cc1nc2sc3c(c2c(-c2ccc(C#N)cc2)c1C(OC(C)(C)C)C(=O)O)CCCC3 (stereo not drawn) [Example 15] | 1.28 µM | – | 14.8 µM | –
Cc1nc2sc3c(c2c(-c2ccccc2O)c1C(OC(C)(C)C)C(=O)O)CCCC3 (stereo not drawn) [Example 16] | 1.73 µM | – | 57.4 µM | –
Cc1nc2sc3c(c2c(-c2ccc4nccn4c2)c1C(OC(C)(C)C)C(=O)O)CCCC3 (stereo not drawn) [Example 17] | 1.78 µM | – | > 100 µM | –
Cc1nc2sc3c(c2c(-c2cnc4ccoc4c2)c1C(OC(C)(C)C)C(=O)O)CCCC3 (stereo not drawn) [Example 18] | 1.84 µM | – | 30.3 µM | –
Cc1nc2sc3c(c2c(-c2cccc(-c4nccn4C)c2)c1C(OC(C)(C)C)C(=O)O)CCCC3 (stereo not drawn) [Example 19] | 1.9 µM | – | 46.5 µM | –
Cc1nc2cc(-c3c(C(OC(C)(C)C)C(=O)O)c(C)nc4sc5c(c34)CCCC5)ccc2s1 (stereo not drawn) [Example 20] | 2.01 µM | – | 11.8 µM | –
CCOC(C(=O)O)c1c(C)nc2sc3c(c2c1-c1ccc2nsnc2c1)CCCC3 (stereo not drawn) [Example 21] | 2.17 µM | – | 64.8 µM | –

SMILES | IC50 [1, 3] | IC50 [2] | IC50 ([2]; table values) | IC50 ([1]; read-out: Antiviral Activity (S8737E), HIV-1 NL4.3 replication in MT2 cells, 3 days, β-Gal readout in JC53BL cells)
Cc1nc2ccc(-c3c(C(OC(C)(C)C)C(=O)O)c(C)nc4sc5c(c34)CCCC5)cc2s1 (stereo not drawn) [Example 22] | 2.73 µM | – | 12.8 µM | –
CCOC(C(=O)O)c1c(C)nc2sc3c(c2c1-c1ccc2cn[nH]c2c1)CCCC3 (stereo not drawn) [Example 23] | 2.73 µM | – | 33.1 µM | –
Cc1nc2sc3c(c2c(-c2cccc4c2cnn4C)c1C(OC(C)(C)C)C(=O)O)CCCC3 (stereo not drawn) [Example 24] | 2.81 µM | – | 7.59 µM | –
CCOC(C(=O)O)c1c(C)nc2sc3c(c2c1-c1ccccc1O)CCCC3 (stereo not drawn) [Example 25] | 4.07 µM | – | > 100 µM | –
Cc1nc2sc3c(c2c(-c2cccc(C#N)c2)c1C(OC(C)(C)C)C(=O)O)CCCC3 (stereo not drawn) [Example 26] | 4.51 µM | – | > 100 µM | –
Cc1nc2sc3c(c2c(-c2cccc(CO)c2)c1C(OC(C)(C)C)C(=O)O)CCCC3 (stereo not drawn) [Example 27] | 4.64 µM | – | 57.5 µM | –
Cc1cc(C)n(-c2cccc(-c3c(C(OC(C)(C)C)C(=O)O)c(C)nc4sc5c(c34)CCCC5)c2)n1 (stereo not drawn) [Example 28] | 5.61 µM | – | 29.6 µM | –
Cc1nc2sc3c(c2c(-c2ccc(N(C)C)nc2)c1C(OC(C)(C)C)C(=O)O)CCCC3 (stereo not drawn) [Example 29] | 5.73 µM | – | 64.6 µM | –
Cc1nc2sc3c(c2c(-c2cnc4cc[nH]c4c2)c1C(OC(C)(C)C)C(=O)O)CCCC3 (stereo not drawn) [Example 30] | 6.63 µM | – | 15.5 µM | –
CCOC(C(=O)O)c1c(C)nc2sc3c(c2c1-c1ccc2scnc2c1)CCCC3 (stereo not drawn) [Example 31] | 6.66 µM | – | > 100 µM | –
Cc1nc2sc3c(c2c(-c2ccc4[nH]ncc4c2)c1C(OC(C)(C)C)C(=O)O)CCCC3 (stereo not drawn) [Example 32] | 7.65 µM | – | > 100 µM | –
CCOC(C(=O)O)c1c(C)nc2sc3c(c2c1-c1ccc(C(F)(F)F)nc1)CCCC3 (stereo not drawn) [Example 33] | 8.19 µM | – | > 100 µM | –
CCOC(C(=O)O)c1c(C)nc2sc3c(c2c1-c1ccccc1CO)CCCC3 (stereo not drawn) [Example 34] | 8.97 µM | – | > 100 µM | –
CCOC(C(=O)O)c1c(C)nc2sc3c(c2c1-c1ccc2cnn(C)c2c1)CCCC3 (stereo not drawn) [Example 35] | 10.7 µM | – | > 100 µM | –
Cc1nc2sc3c(c2c(-c2c[nH]c4nccc-4c2)c1C(OC(C)(C)C)C(=O)O)CCCC3 (stereo not drawn) [Example 36] | 12 µM | – | > 100 µM | –
Cc1cc(-c2c(C(OC(C)(C)C)C(=O)O)c(C)nc3sc4c(c23)CCCC4)ccn1 (stereo not drawn) [Example 37] | 13.9 µM | – | > 100 µM | –
Cc1nc2sc3c(c2c(-c2cccc(-n4cccn4)c2)c1C(OC(C)(C)C)C(=O)O)CCCC3 (stereo not drawn) [Example 38] | 15.1 µM | – | 97.5 µM | –
COc1ncc(-c2c(C(OC(C)(C)C)C(=O)O)c(C)nc3sc4c(c23)CCCC4)cn1 (stereo not drawn) [Example 39] | 15.5 µM | – | > 100 µM | –
CCOC(C(=O)O)c1c(C)nc2sc3c(c2c1-c1cnn(CC)c1)CCCC3 (stereo not drawn) [Example 41] | 17.7 µM | – | > 100 µM | –
CCOC(C(=O)O)c1c(C)nc2sc3c(c2c1-c1ccc(OC)nc1)CCCC3 (stereo not drawn) [Example 42] | 18.1 µM | – | > 100 µM | –
CCOC(C(=O)O)c1c(C)nc2sc3c(c2c1-c1ccc2c(cnn2C)c1)CCCC3 (stereo not drawn) [Example 43] | 18.9 µM | – | > 100 µM | –
Cc1nc2sc3c(c2c(-c2ccc(Cl)cc2)c1[C@H](OC(C)(C)C)C(=O)O)CCCC3 [Example 44, (2S)-tert-butoxy[4-(4-chlorophenyl)-2-methyl-5,6,7,8-tetrahydro[1]benzothieno[2,3-b]pyridin-3-yl]acetic acid] | 0.036 µM | 0.576 µM | – | –

Source: patent US9447116B2, “Inhibitors of HIV replication” (priority 2010, dated 2016)
